Source: ChEMBL document CHEMBL1155397, “Synthesis of amino acid conjugates to 2-imino-3-methylene-5-carboxypyrrolidine and 2-imino-3-methylene-6-carboxypiperidine” (2010)

Key:
Type in all cases: functional
Conditions in all cases: read-out: IZ
Erwinia amylovora [1] = experiment: Antibacterial activity against Erwinia amylovora at 10 ug after 12 hrs by agar diffusion assay
Erwinia amylovora [2] = experiment: Antibacterial activity against Erwinia amylovora at 100 ug after 12 hrs by agar diffusion assay
Erwinia amylovora [3] = experiment: Antibacterial activity against Erwinia amylovora at 1 ug after 12 hrs by agar diffusion assay
Erwinia amylovora [4] = experiment: Antibacterial activity against Erwinia amylovora at 0.1 ug after 12 hrs by agar diffusion assay

| SMILES | zone of inhibition at 10 µg/disc (Erwinia amylovora [1]) [mm] | zone of inhibition at 100 µg/disc (Erwinia amylovora [2]) [mm] | zone of inhibition at 1 µg/disc (Erwinia amylovora [3]) [mm] | zone of inhibition at 0.1 µg/disc (Erwinia amylovora [4]) [mm] |
| --- | --- | --- | --- | --- |
| C=C1C[C@H](C(=O)N[C@H](C(=O)O)C(C)C)NC1=N | 10 | 19 | 6 |  |
| C=C1C[C@@H](C(=O)N[C@@H](C(=O)O)C(C)C)NC1=N |  | 10 |  |  |
| C=C1C[C@@H](C(=O)N[C@H](C(=O)O)C(C)C)NC1=N |  |  | 19 | 10 |
